Laboratory results: US9969694B2, “N-(arylalkyl)-N′-pyrazolyl-urea, thiourea, guanidine and cyanoguanidine compounds as TrkA kinase inhibitors” (Array BioPharma Inc., priority 2012, dated 2018)

Biological target: T1, His-tagged recombinant human TrkA (Homo sapiens, UniProt P04629)
T1 construct: 6HIS tagged cytoplasmic domain from Invitrogen, Catalog No. PV3144; purchased Invitrogen PV3144
Assay: TrkA Kinase Binding Assay (LanthaScreen Eu)
Settings: averaged IC50; TR-FRET binding, 60 min, 22° C.; read-out: TrkA Enzyme IC50
Protocol: TrkA binding activity was determined in a TrkA LanthaScreen™ Eu Kinase Binding Assay. 5 nM His-tagged recombinant human TrkA (6HIS tagged cytoplasmic domain from Invitrogen, Catalog No. PV3144) was incubated with 4 nM Alexa-Fluor® Tracer 236 (Invitrogen Cat. No. PV5592), 2 nM biotinylated anti-His (Invitrogen Cat. No. PV6090), and 2 nM europium-labeled Streptavidin (Invitrogen Cat. No. PV5899), in buffer (25 mM MOPS, pH 7.5, 5 mM MgCl2, 0.005% Triton X-100). Three fold serial dilutions of compounds of the invention in DMSO were added to a final percentage of 2% DMSO. After 60-minute incubation at 22° C., the reaction was measured using the EnVision mutlimode plate reader (PerkinElmer) via TR-FRET dual wavelength detection at […]. The percent of control was calculated using a ratiometric emission factor. The IC50 values were determined by fitting a four parameter model to the percent of control data.
Table A provides averaged IC50 values for compounds of the invention when tested in the assay of Example A, where A represents an averaged IC50 value <100 nM; B represents an averaged IC50 value from 100 to 1,000 nM; and C represents an average 1050 value above 1000 nM.

T1 sequence (P04629 440-796 limits assumed): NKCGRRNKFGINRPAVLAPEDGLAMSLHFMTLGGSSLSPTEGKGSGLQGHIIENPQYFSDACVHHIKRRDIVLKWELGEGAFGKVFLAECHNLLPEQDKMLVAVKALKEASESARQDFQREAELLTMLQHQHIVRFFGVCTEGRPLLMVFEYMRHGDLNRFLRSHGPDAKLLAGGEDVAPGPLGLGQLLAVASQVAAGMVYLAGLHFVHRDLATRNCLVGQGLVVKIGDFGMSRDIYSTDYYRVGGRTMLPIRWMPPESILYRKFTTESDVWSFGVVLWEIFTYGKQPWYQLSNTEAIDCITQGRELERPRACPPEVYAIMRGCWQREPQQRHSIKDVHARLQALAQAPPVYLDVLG

IC50 [nM] | Compound
< 100 | COCc1ccc(C2(F)COC2)c(CNC(=O)Nc2c(C)c(-c3cnn(C)c3)nn2-c2ccccc2)c1 [Example 31, 1-(1′,4-dimethyl-1-phenyl-1H,1′H-[3,4′-bipyrazol]-5-yl)-3-(2-(3-fluorooxetan-3-yl)-5-(methoxymethyl)benzyl)urea]
100 to 1000 | COCc1ccc(C2(F)COC2)c(CNC(=O)Nc2c(C)c(-c3ccc(C)nc3)nn2-c2ccccc2)c1 [Example 32, 1-(2-(3-fluorooxetan-3-yl)-5-(methoxymethyl)benzyl)-3-(4-methyl-3-(6-methylpyridin-3-yl)-1-phenyl-1H-pyrazol-5-yl)urea]
< 100 | COCc1ccc(C(C)C)c(CNC(=O)Nc2c(C)c(-c3cnn(C)c3)nn2-c2ccccc2)c1 [Example 34, 1-(1′,4-dimethyl-1-phenyl-1H,1′H-[3,4′-bipyrazol]-5-yl)-3-(2-isopropyl-5-(methoxymethyl)benzyl)urea]
< 100 | COCc1ccc(C(C)(C)C)c(CNC(=O)Nc2c(C)c(-c3cnn(C)c3)nn2-c2ccccc2)c1 [Example 35, 1-(2-(tert-butyl)-5-(methoxymethyl)benzyl)-3-(1′,4-dimethyl-1-phenyl-1H,1′H-[3,4′-bipyrazol]-5-yl)urea]
< 100 | COCc1cc(CNC(=O)Nc2c(C)c(-c3cnn(C)c3)nn2-c2ccccc2)c(C2CCC2)cn1 [Example 36, 1-((5-cyclobutyl-2-(methoxymethyl)pyridin-4-yl)methyl)-3-(1′,4-dimethyl-1-phenyl-1H,1′H-[3,4′-bipyrazol]-5-yl)urea]
100 to 1000 | Cc1c(-c2cnn(C)c2)nn(-c2ccccc2)c1NC(=O)NCc1ccncc1C1CCC1 [Example 37, 1-((3-cyclobutylpyridin-4-yl)methyl)-3-(1′,4-dimethyl-1-phenyl-1H,1′H-[3,4′-bipyrazol]-5-yl)ureaea]
< 100 | COCc1ccc(C2CC(F)(F)C2)c(CNC(=O)Nc2c(C)c(-c3cnn(C)c3)nn2-c2ccccc2)c1 [Example 38, 1-(2-(3,3-difluorocyclobutyl)-5-(methoxymethyl)benzyl)-3-(1′,4-dimethyl-1-phenyl-1H,1′H-[3,4′-bipyrazol]-5-yl)urea]
100 to 1000 | Cc1ccccc1CC(NC(=O)Nc1c2c(nn1-c1ccccc1)CCC2)c1ccccc1 (centres unmarked) [Example 39, 1-(2-phenyl-2,4,5,6-tetrahydrocyclopenta[c]pyrazol-3-yl)-3-(1-phenyl-2-o-tolylethyl)urea]
100 to 1000 | O=C(Nc1c2c(nn1-c1ccccc1)CCC2)NC(Cc1ccccc1)c1ccccc1 (centres unmarked) [Example 40, 1-(1,2-diphenylethyl)-3-(2-phenyl-2,4,5,6-tetrahydrocyclopenta[c]pyrazol-3-yl)urea]
100 to 1000 | CC(Cc1ccccc1)(NC(=O)Nc1c2c(nn1-c1ccccc1)CCC2)c1ccccc1 (centres unmarked) [Example 41, 1-(1,2-diphenylpropan-2-yl)-3-(2-phenyl-2,4,5,6-tetrahydrocyclopenta[c]pyrazol-3-yl)urea]
< 100 | O=C(Nc1c2c(nn1-c1ccccc1)CCC2)NC(Cc1ccccc1)Cc1ccccc1 [Example 42, 1-(1,3-diphenylpropan-2-yl)-3-(2-phenyl-2,4,5,6-tetrahydrocyclopenta[c]pyrazol-3-yl)urea]
100 to 1000 | Cc1c(-c2cnn(C)c2)nn(-c2ccccc2)c1NC(=O)NCc1cccc2ccccc12 [Example 43, 1-(1′,4-dimethyl-1-phenyl-1H,1′H-3,4′-bipyrazol-5-yl)-3-(naphthalen-1-ylmethyl)urea]
< 100 | Cc1c(-c2cnn(C)c2)nn(-c2ccccc2)c1NC(=O)NCC1CCCc2ccccc21 (centres unmarked) [Example 44, 1-(1′,4-dimethyl-1-phenyl-1H,1′H-3,4′-bipyrazol-5-yl)-3-((1,2,3,4-tetrahydronaphthalen-1-yl)methyl)urea]
100 to 1000 | O=C(Nc1c2c(nn1-c1ccccc1)CCC2)NC(Cc1ccccc1Cl)c1ccccc1 (centres unmarked) [Example 45, 1-(2-(2-chlorophenyl)-1-phenylethyl)-3-(2-phenyl-2,4,5,6-tetrahydrocyclopenta[c]pyrazol-3-yl)urea]
< 100 | O=C(Nc1c2c(nn1-c1ccccc1)CCC2)NC(Cc1ccccc1)Cc1ccccc1Cl (centres unmarked) [Example 46, 1-(1-(2-chlorophenyl)-3-phenylpropan-2-yl)-3-(2-phenyl-2,4,5,6-tetrahydrocyclopenta[c]pyrazol-3-yl)urea]
< 100 | O=C(Nc1c2c(nn1-c1ccccc1)CCC2)NC(Cc1ccccc1)Cc1ccc(F)c(F)c1 (centres unmarked) [Example 47, 1-(1-(3,4-difluorophenyl)-3-phenylpropan-2-yl)-3-(2-phenyl-2,4,5,6-tetrahydrocyclopenta[c]pyrazol-3-yl)urea]

IC50 [nM] | Compound
100 to 1000 | COc1ccccc1CC(Cc1ccccc1)NC(=O)Nc1c2c(nn1-c1ccccc1)CCC2 (centres unmarked) [Example 48, 1-(1-(2-methoxyphenyl)-3-phenylpropan-2-yl)-3-(2-phenyl-2,4,5,6-tetrahydrocyclopenta[c]pyrazol-3-yl)urea]
100 to 1000 | O=C(Nc1c2c(nn1-c1ccccc1)CCC2)NC(CCC(F)(F)F)Cc1ccccc1 (centres unmarked) [Example 49, 1-(2-phenyl-2,4,5,6-tetrahydrocyclopenta[c]pyrazol-3-yl)-3-(5,5,5-trifluoro-1-phenylpentan-2-yl)urea]
100 to 1000 | Cc1c(-c2cnn(C)c2)nn(-c2ccccc2)c1NC(=O)NCc1ccccc1-c1ccccc1 [Example 50, 1-([1,1′-biphenyl]-2-ylmethyl)-3-(1′,4-dimethyl-1-phenyl-1H,1′H-[3,4′-bipyrazol]-5-yl)urea]
< 100 | COCc1ccc(OC(F)F)c(CNC(=O)Nc2c(C)c(-c3cncc(OC)c3)nn2-c2ccccc2)c1 [Example 52, 1-(2-(difluoromethoxy)-5-(methoxymethyl)benzyl)-3-(3-(5-methoxypyridin-3-yl)-4-methyl-1-phenyl-1H-pyrazol-5-yl)urea]
< 100 | COCc1ccc(OC(F)(F)F)c(CNC(=O)Nc2c(C)c(-c3ccc(OC)nc3)nn2-c2ccccc2)c1 [Example 53, 1-(5-(methoxymethyl)-2-(trifluoromethoxy)benzyl)-3-(3-(6-methoxypyridin-3-yl)-4-methyl-1-phenyl-1H-pyrazol-5-yl)urea]
< 100 | COCc1ccc(OC(F)(F)F)c(CNC(=O)Nc2c(C)c(-c3cncc(OC)c3)nn2-c2ccccc2)c1 [Example 54, 1-(5-(methoxymethyl)-2-(trifluoromethoxy)benzyl)-3-(3-(5-methoxypyridin-3-yl)-4-methyl-1-phenyl-1H-pyrazol-5-yl)urea]
< 100 | CNC(=O)c1nn(-c2ccccc2)c(NC(=O)NCc2cc(COC)ccc2OC(F)(F)F)c1C [Example 55, 5-(3-(5-(methoxymethyl)-2-(trifluoromethoxy)benzyl)ureido)-N,4-dimethyl-1-phenyl-1H-pyrazole-3-carboxamide]
< 100 | CNC(=O)c1nn(-c2ccccc2)c(NC(=O)NCc2cc(COC)ccc2OC(F)F)c1C [Example 56, 5-(3-(2-(difluoromethoxy)-5-(methoxymethyl)benzyl)ureido)-N,4-dimethyl-1-phenyl-1H-pyrazole-3-carboxamide]
< 100 | COCc1ccc(OC(F)(F)F)c(CNC(=O)Nc2c3c(nn2-c2ccccc2)CSC3)c1 [Example 57, 1-(5-(methoxymethyl)-2-(trifluoromethoxy)benzyl)-3-(2-phenyl-4,6-dihydro-2H-thieno[3,4-c]pyrazol-3-yl)urea]
< 100 | COCc1ccc(OC(F)(F)F)c(CNC(=O)Nc2c3c(nn2-c2ccccc2)CS(=O)(=O)C3)c1 [Example 58, 1-(5,5-dioxido-2-phenyl-4,6-dihydro-2H-thieno[3,4-c]pyrazol-3-yl)-3-(5-(methoxymethyl)-2-(trifluoromethoxy)benzyl)urea]
< 100 | COCc1ccc(OC(F)(F)F)c(CNC(=O)Nc2c(C)c(-c3cnc(OC)nc3)nn2-c2ccccc2)c1 [Example 59, 1-(5-(methoxymethyl)-2-(trifluoromethoxy)benzyl)-3-(3-(2-methoxypyrimidin-5-yl)-4-methyl-1-phenyl-1H-pyrazol-5-yl)urea]
< 100 | COCc1ccc(OC(F)(F)F)c(CNC(=O)Nc2c(C)c(OCCF)nn2-c2ccccc2)c1 [Example 60, 1-(3-(2-fluoroethoxy)-4-methyl-1-phenyl-1H-pyrazol-5-yl)-3-(5-(methoxymethyl)-2-(trifluoromethoxy)benzyl)urea]
< 100 | COCc1ccc(OC(F)(F)F)c(CNC(=O)Nc2c(C)c(OCc3nnc(C)o3)nn2-c2ccccc2)c1 [Example 61]
< 100 | COCc1ccc(OC(F)F)c(CNC(=O)Nc2c(C)c(-c3cnc(OC)nc3)nn2-c2ccccc2)c1 [Example 62, 1-(2-(difluoromethoxy)-5-(methoxymethyl)benzyl)-3-(3-(2-methoxypyrimidin-5-yl)-4-methyl-1-phenyl-1H-pyrazol-5-yl)urea]
< 100 | COCc1ccc(OC(F)(F)F)c(CNC(=O)Nc2c(C)c(OCCO)nn2-c2ccccc2)c1 [Example 63, 1-(3-(2-hydroxyethoxy)-4-methyl-1-phenyl-1H-pyrazol-5-yl)-3-(5-(methoxymethyl)-2-(trifluoromethoxy)benzyl)urea]
< 100 | CNC(=O)c1nn(-c2ccccc2)c(NC(=O)NCc2cc(Br)ccc2OC(F)(F)F)c1C [Example 64, 5-(3-(5-bromo-2-(trifluoromethoxy)benzyl)ureido)-N,4-dimethyl-1-phenyl-1H-pyrazole-3-carboxamide]
